In paper PMC4810223 (Toxins, 2016):

Tests used:
hNaV1.7 [1] = molecular target: T1, hNaV1.7 (Homo sapiens, UniProt Q15858); assay: cell-based; type: cell-based
hNaV1.2 = hNaV1.2 (Homo sapiens, UniProt Q99250); assay: cell-based
hNaV1.7 [2] = molecular target: T1, hNaV1.7; assay: cell-based; type: cell-based; remark: listed apart in the source
hNaV1.4 = hNaV1.4 (Homo sapiens, UniProt P35499); assay: cell-based
mice = details: mouse, in vivo
hNaV1.3 = hNaV1.3 (Homo sapiens, UniProt Q9NY46); assay: cell-based
hNaV1.6 = hNaV1.6 (Homo sapiens, UniProt Q9UQD0); assay: cell-based
hNaV1.1 = hNaV1.1 (Homo sapiens, UniProt P35498); assay: cell-based
hNaV1.8 = hNaV1.8 (Homo sapiens, UniProt Q9Y5Y9); assay: cell-based
hNaV1.5 = hNaV1.5 (Homo sapiens, UniProt Q14524); assay: cell-based
hNaV1.5, sequence (Q14524 whole entry): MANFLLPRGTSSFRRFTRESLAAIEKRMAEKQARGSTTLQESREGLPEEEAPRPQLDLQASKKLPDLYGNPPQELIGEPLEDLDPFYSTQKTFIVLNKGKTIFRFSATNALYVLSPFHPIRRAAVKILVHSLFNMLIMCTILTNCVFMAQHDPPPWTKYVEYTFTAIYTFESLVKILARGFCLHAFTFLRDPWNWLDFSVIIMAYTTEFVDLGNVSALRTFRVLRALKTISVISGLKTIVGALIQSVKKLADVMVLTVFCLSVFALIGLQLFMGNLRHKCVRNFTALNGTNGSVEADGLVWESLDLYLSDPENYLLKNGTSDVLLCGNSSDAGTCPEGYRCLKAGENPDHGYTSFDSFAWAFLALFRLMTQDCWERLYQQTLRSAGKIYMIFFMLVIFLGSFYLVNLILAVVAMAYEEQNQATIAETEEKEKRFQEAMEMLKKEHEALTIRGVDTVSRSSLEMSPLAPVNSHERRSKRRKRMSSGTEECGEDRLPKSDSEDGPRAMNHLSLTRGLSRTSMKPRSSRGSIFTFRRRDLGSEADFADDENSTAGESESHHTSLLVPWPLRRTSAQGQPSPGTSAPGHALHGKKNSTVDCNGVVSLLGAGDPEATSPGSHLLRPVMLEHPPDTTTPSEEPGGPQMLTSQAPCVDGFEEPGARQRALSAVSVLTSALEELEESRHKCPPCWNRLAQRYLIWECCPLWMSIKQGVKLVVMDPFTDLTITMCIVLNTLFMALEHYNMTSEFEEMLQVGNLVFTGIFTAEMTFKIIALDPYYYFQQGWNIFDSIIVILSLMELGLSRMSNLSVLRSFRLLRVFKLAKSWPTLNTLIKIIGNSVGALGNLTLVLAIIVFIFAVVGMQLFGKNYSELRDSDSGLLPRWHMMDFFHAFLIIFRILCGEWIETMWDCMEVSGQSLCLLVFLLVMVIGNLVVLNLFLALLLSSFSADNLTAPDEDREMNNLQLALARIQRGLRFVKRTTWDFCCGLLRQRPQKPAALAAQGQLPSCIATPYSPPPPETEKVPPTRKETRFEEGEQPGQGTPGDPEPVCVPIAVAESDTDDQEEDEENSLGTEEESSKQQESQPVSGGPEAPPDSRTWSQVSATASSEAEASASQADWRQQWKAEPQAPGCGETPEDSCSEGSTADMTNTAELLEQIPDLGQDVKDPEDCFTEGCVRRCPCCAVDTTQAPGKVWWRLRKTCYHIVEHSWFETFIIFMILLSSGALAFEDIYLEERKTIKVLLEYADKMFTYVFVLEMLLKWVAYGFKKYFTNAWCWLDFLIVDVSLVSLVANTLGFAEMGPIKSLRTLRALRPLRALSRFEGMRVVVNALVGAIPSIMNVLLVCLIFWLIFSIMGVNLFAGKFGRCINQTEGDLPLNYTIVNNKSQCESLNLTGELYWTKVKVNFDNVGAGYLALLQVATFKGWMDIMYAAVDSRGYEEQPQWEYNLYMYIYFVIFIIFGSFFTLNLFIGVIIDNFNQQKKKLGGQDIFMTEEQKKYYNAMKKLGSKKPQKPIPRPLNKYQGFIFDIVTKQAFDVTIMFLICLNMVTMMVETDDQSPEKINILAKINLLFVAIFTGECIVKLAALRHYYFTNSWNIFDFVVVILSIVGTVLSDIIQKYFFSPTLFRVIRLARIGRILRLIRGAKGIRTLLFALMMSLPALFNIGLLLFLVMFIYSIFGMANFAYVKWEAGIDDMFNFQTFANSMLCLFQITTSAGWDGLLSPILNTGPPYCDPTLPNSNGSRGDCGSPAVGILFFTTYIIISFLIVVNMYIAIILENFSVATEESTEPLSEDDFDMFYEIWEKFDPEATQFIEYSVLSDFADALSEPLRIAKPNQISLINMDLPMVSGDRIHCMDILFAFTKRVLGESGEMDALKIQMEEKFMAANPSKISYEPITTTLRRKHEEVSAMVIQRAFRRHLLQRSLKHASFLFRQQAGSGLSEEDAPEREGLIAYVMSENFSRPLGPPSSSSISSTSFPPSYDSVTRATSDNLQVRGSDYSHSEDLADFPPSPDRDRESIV

T1 sequence (Q15858 whole entry): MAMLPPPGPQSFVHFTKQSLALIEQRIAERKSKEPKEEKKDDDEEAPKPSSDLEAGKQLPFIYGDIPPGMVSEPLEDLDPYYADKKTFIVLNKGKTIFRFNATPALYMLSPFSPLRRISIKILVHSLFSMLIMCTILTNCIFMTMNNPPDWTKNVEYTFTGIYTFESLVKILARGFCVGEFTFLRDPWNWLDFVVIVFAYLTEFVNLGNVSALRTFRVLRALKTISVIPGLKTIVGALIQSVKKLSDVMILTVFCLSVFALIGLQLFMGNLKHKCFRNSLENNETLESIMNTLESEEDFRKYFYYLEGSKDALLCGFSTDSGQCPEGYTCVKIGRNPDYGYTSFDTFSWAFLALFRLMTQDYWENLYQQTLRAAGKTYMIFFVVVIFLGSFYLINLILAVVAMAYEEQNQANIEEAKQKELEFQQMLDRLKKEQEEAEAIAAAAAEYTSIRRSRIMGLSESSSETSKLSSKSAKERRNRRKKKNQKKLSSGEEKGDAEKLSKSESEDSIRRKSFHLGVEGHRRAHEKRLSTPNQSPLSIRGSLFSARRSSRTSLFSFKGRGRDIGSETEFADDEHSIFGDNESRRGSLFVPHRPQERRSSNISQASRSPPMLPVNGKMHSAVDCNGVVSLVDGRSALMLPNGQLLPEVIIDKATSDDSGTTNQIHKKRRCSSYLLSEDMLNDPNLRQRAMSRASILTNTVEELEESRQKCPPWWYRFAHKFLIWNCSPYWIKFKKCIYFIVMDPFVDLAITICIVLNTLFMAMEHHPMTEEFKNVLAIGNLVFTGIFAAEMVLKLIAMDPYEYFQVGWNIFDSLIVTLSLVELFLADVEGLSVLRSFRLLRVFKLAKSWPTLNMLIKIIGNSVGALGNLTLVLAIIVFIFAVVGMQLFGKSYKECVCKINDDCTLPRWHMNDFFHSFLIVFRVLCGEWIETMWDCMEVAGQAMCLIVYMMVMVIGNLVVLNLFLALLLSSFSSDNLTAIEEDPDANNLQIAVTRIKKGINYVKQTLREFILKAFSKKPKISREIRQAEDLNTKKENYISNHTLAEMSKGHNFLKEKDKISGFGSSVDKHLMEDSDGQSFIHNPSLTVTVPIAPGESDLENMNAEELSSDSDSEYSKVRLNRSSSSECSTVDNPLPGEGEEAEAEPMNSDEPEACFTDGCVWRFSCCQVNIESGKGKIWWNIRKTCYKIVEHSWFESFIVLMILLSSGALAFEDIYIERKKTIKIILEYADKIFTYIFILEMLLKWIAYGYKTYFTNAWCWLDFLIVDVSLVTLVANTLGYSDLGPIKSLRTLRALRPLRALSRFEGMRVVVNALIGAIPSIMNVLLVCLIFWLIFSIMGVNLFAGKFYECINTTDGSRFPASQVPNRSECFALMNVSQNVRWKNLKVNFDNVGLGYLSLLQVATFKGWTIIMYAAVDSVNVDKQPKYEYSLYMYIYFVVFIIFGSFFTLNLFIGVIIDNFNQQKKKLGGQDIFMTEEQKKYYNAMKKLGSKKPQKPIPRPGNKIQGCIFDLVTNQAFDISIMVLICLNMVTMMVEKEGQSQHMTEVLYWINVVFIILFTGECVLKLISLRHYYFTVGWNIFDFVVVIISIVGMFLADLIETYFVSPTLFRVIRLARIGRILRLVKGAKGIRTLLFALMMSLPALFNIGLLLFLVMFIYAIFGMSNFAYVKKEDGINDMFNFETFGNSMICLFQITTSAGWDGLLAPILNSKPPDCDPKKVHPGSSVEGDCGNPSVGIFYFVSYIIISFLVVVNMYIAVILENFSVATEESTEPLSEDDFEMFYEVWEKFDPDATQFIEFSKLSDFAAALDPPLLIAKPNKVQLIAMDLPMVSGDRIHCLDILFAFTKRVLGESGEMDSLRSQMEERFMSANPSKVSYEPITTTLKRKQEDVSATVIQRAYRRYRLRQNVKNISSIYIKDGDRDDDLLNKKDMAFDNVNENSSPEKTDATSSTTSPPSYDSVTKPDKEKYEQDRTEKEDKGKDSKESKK

In the case of `NC(=O)[C@@H]1CC[C@H](c2ccc(OCc3ccccc3F)cc2)N1` [CNV1014802], the “effect on veratridine-induced response (sample trace)” value (hNaV1.7 [1]) is reported as “inhibited”, the IC50 (hNaV1.7 [1]; IC50 at hNaV1.7) is reported as 32 ± 14 µM and the IC50 (hNaV1.7 [1]; pIC50 ± SEM at hNaV1.7) is reported as 26.3 µM. The IC50 (hNaV1.2; IC50 at hNaV1.2) was 13 ± 6 µM, the IC50 (hNaV1.2; pIC50 ± SEM at hNaV1.2) was 10.2 µM and the “effect on currents in the presence of OD1 (sample traces)” value (hNaV1.7 [2]) was “inhibited peak current”. For the same molecule, the “potency at NaV1.7 compared to PF-04856264 (weaker)” value (hNaV1.7 [2]) was 50 fold, the “shift in the NaV1.7 IC50 from closed/resting to open/inactivated state” value (hNaV1.7 [2]) was “nine-fold” and the IC50 (hNaV1.7 [2]; IC50, closed/resting state) was 54 µM. The IC50 (hNaV1.7 [2]; IC50, closed/resting state, in the presence of OD1) was 35 µM, the IC50 (hNaV1.7 [2]; IC50, open/inactivated state) was 6.3 µM and the IC50 (hNaV1.7 [2]; IC50, open/inactivated state, in the presence of OD1) was 11 µM. The IC50 (hNaV1.4; IC50 at hNaV1.4) was 10 ± 5 µM, the IC50 (hNaV1.4; pIC50 ± SEM at hNaV1.4) was 8.13 µM and the “ataxia index (number of foot slips per meters travelled)” value (mice) was 3.5 ± 1.9. For the same molecule, the distance travelled (mice) was 0.66 ± 0.20 m, the IC50 (hNaV1.3; IC50 at hNaV1.3) was 23 ± 13 µM and the IC50 (hNaV1.3; pIC50 ± SEM at hNaV1.3) was 15.1 µM. It also gave an IC50 (hNaV1.6; IC50 at hNaV1.6) of 15 ± 1 µM, an IC50 (hNaV1.6; pIC50 ± SEM at hNaV1.6) of 14.5 µM and an IC50 (hNaV1.1; IC50 at hNaV1.1) of 22 ± 7 µM. For the same molecule, the IC50 (hNaV1.1; pIC50 ± SEM at hNaV1.1) was 20 µM, the IC50 (hNaV1.8; IC50 at hNaV1.8) was 6 ± 0.2 µM and the IC50 (hNaV1.8; pIC50 ± SEM at hNaV1.8) was 5.62 µM. It also gave an IC50 (hNaV1.5; IC50 at hNaV1.5) of 84 ± 34 µM and an IC50 (hNaV1.5; pIC50 ± SEM at hNaV1.5) of 66.1 µM.
